For 16 compounds, TGI and GI50 results are on record in PubChem BioAssay (NCI).

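The compound was tested at five concentrations on cells cultured in 96-well plates, with a 48-hour exposure period. At the GI50, growth is halved. Definition used: TGI = concentration required for complete inhibition of growth.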

Test systems include NCI-H460 lung; RPMI-8226 leukemia; SN12C renal; SK-MEL-5 melanoma; SF-295 CNS; CAKI-1 renal; MCF7 breast; MDA-MB-435; MDA-MB-231 breast; MDA-N.
Holding throughout (assay): NCI anticancer screen, dose series, 48 h

Take `Nc1nc([O-])c2c(n1)[n+](C1OC(CO)C(O)C1O)cn2CCO` (stereo not given): the TGI with NCI-H460 lung, with RPMI-8226 leukemia, with SN12C renal, in the assay with SK-MEL-5 melanoma, with SF-295 CNS and in the assay on CAKI-1 renal was greater than 100 µM each time.

On to `O=C(Nc1nnc(-c2ccc(Cl)cc2)o1)C(SC(=S)N1CCOCC1)c1ccccc1` (stereo not given), for which the TGI in the assay on NCI-H460 lung was 53.3 µM; in the assay on MCF7 breast it was greater than 100 µM; in the assay with RPMI-8226 leukemia, greater than 100 µM; with MDA-MB-435, greater than 100 µM; with MDA-MB-231 breast, greater than 100 µM; in the assay with SN12C renal it was 42.7 µM. In addition, the TGI is 26.6 µM in the assay on SK-MEL-5 melanoma, 94.4 µM in the assay with SF-295 CNS and greater than 100 µM in the assay on CAKI-1 renal.

Consider `CN=C(SC)N(C)c1nc(=[N+](C)C)ss1`, for which the TGI in the assay with SN12C renal, in the assay with SK-MEL-5 melanoma, in the assay with SF-295 CNS and with CAKI-1 renal was greater than 100 µM in each case.

For `Cc1ccc([N+](=O)[O-])c2c(NCCC[N+](C)(C)[O-])c3ccccc3nc12`, the TGI with NCI-H460 lung was determined as 5.14 µM; in the assay with MCF7 breast, 7.66 µM; in the assay on MDA-MB-435, 5.15 µM; with MDA-MB-231 breast, 6.28 µM; with SN12C renal, 8.74 µM; with SK-MEL-5 melanoma, 2.46 µM. Also, the results for the TGI in the assay with SF-295 CNS and with CAKI-1 renal were greater than 100 µM and 97 µM, respectively.

Take `CC(C)OC(=O)/C=C/C(=O)O/C=C/[N+](=O)[O-]`: the TGI in the assay on NCI-H460 lung is greater than 100 µM; in the assay with MCF7 breast, 54.9 µM; with RPMI-8226 leukemia, 33.9 µM; in the assay with MDA-MB-435, greater than 100 µM; with MDA-MB-231 breast it was greater than 100 µM; in the assay on SK-MEL-5 melanoma, greater than 100 µM. The TGI in the assay with SF-295 CNS and with CAKI-1 renal was greater than 100 µM throughout.

With `CC1(C)C[C@@H]2C1CCC1(C)CC2(O)CC[C@H]1O` (stereo not given in full), the TGI in the assay with NCI-H460 lung, with MCF7 breast, in the assay with RPMI-8226 leukemia, in the assay with MDA-MB-435, in the assay with SN12C renal and in the assay on SK-MEL-5 melanoma was greater than 100 µM throughout. Besides, the TGI in the assay with SF-295 CNS and with CAKI-1 renal was greater than 100 µM in each case.

Regarding `N#Cc1[nH]c(=O)n(-c2ccccc2)c1N`, the TGI in the assay on NCI-H460 lung, in the assay on MDA-N, with RPMI-8226 leukemia, in the assay on MDA-MB-435, with MDA-MB-231 breast and in the assay with SN12C renal was greater than 10 µM each time. For the same compound, the TGI in the assay with SK-MEL-5 melanoma is greater than 10 µM; in the assay with SF-295 CNS it was 3.72 µM.

`CN(C)CC1CCCC(CN(C)C)C1OC(=O)c1ccccc1` (stereo not given): the TGI with NCI-H460 lung, in the assay with RPMI-8226 leukemia, with SN12C renal, with SK-MEL-5 melanoma, with SF-295 CNS and in the assay on CAKI-1 renal was greater than 100 µM each time.

As to `CC(=O)O[C@H]1C(=O)[C@@]2(C)[C@H]([C@H](OC(=O)c3ccoc3)[C@]3(O)C[C@H](OC(=O)[C@H](O)[C@@H](NC(=O)c4ccccc4)c4ccccc4)C(C)=C1C3(C)C)[C@]1(OC(C)=O)CO[C@@H]1C[C@@H]2O`, the TGI with NCI-H460 lung was greater than 3.73 µM; with MCF7 breast, greater than 12.5 µM; in the assay on MDA-MB-435, 0.0236 µM; in the assay on MDA-MB-231 breast, greater than 12.5 µM; in the assay with SN12C renal it was greater than 12.5 µM; in the assay with SF-295 CNS it was greater than 12.5 µM. The same compound returned a TGI with CAKI-1 renal greater than 12.5 µM.

On to `CCCc1c(O)nc(Nc2nc3ccccc3[nH]2)[nH]c1=O`, for which the TGI with NCI-H460 lung, with MDA-N, with RPMI-8226 leukemia, in the assay with MDA-MB-435, in the assay with MDA-MB-231 breast and in the assay with SN12C renal was greater than 100 µM throughout. Also, the TGI in the assay with SK-MEL-5 melanoma, in the assay with SF-295 CNS and in the assay on CAKI-1 renal was greater than 100 µM in each case.

As to `C[Si](C)(C)OC1CC(=O)OC1n1cc(F)c(=O)[nH]c1=O` (stereo not given), the TGI with NCI-H460 lung was greater than 100 µM; with RPMI-8226 leukemia, 40.4 µM; in the assay with SN12C renal it was greater than 100 µM; in the assay on SK-MEL-5 melanoma, greater than 100 µM; with SF-295 CNS it was greater than 100 µM; with CAKI-1 renal, greater than 100 µM.

On to `CCOC(=O)CNC(=O)N(CC)C12CC3CC(CC(C3)C1)C2`, for which the TGI with NCI-H460 lung amounted to 406 µM; with MCF7 breast, 444 µM; in the assay on RPMI-8226 leukemia it was 316 µM; in the assay on SN12C renal it was 414 µM; in the assay on SK-MEL-5 melanoma it was 195 µM; in the assay with SF-295 CNS it was 304 µM. The TGI with CAKI-1 renal was found to be 313 µM.

As for `CCN(CC)C1CC(O[C@H]2C[C@](O)(C(=O)CO)Cc3c(O)c4c(c(O)c32)C(=O)c2c(OC)cccc2C4=O)OC(C)C1O` (stereo not given in full), the TGI with NCI-H460 lung is 0.146 µM; with RPMI-8226 leukemia, 0.31 µM; with SN12C renal, 1.25 µM; with SK-MEL-5 melanoma, 0.124 µM; in the assay with SF-295 CNS, 0.468 µM.

On to `O=Cc1ccccc1COC(=O)c1cc(C(=O)OCc2ccccc2C=O)c(C(=O)OCc2ccccc2C=O)cc1C(=O)OCc1ccccc1C=O`, for which the TGI in the assay on NCI-H460 lung, in the assay with RPMI-8226 leukemia, in the assay on SN12C renal, in the assay on SK-MEL-5 melanoma, in the assay on SF-295 CNS and in the assay with CAKI-1 renal was greater than 100 µM in each case.

`COc1ccccc1CNCCCN1C(=O)c2ccc3c4c(ccc(c24)C1=O)C(=O)N(CCCNCCNCCCN)C3=O`: the GI50 in the assay on NCI-H460 lung was 2.08 µM; in the assay with MCF7 breast it was 0.422 µM; with RPMI-8226 leukemia it was 10.9 µM; in the assay with MDA-MB-435, 2.07 µM; in the assay on MDA-MB-231 breast, 2.09 µM; with SN12C renal it was 2.09 µM. The GI50 was 1.57 µM with SK-MEL-5 melanoma, 2.77 µM in the assay on SF-295 CNS and 21.7 µM in the assay with CAKI-1 renal. In addition, the TGI with NCI-H460 lung was 6.47 µM; in the assay on MCF7 breast, 2.22 µM; in the assay on RPMI-8226 leukemia it was greater than 100 µM; in the assay on MDA-MB-435, 4.94 µM; in the assay with MDA-MB-231 breast, greater than 100 µM; with SN12C renal it was 8.07 µM. Moreover, the TGI is 3.02 µM in the assay with SK-MEL-5 melanoma, 12.6 µM with SF-295 CNS and greater than 100 µM in the assay on CAKI-1 renal.

`CC1=CCC(O)C=CC(C)C(O)C(C)C=C(C)C(=O)c2c(O)c(C)cc3c2C(=O)C(N)=C(NC(=O)/C=C\C=C/C=CC(C)C(O)CC1=O)C3=O` (stereo not given): the TGI in the assay with RPMI-8226 leukemia, in the assay with SN12C renal, in the assay with SK-MEL-5 melanoma, with SF-295 CNS and in the assay with CAKI-1 renal was greater than 100 µM throughout.
